Results taken from PubChem BioAssay AID652171 (Broad Institute, 2013).

Test system: INS-1E cytokine-induced apoptosis, ATP luminescence, 48 h
Assay: protection from cytokine-induced beta-cell death, late-stage follow-up, mechanism study for beta-cell protection project, INS-1E, ATP luminescence, dry powder (AID 652171)

For `C[C@@H]1CN([C@@H](C)CO)C(=O)c2cccc(NC(=O)Nc3cccc4ccccc34)c2O[C@H]1CN(C)S(=O)(=O)c1ccc2c(c1)OCCO2`, which inhibition of cytokine-induced cell death (at 10 µM (top of the series)) is on record?
Its inhibition of cytokine-induced cell death is 90%.

How did the inhibition of cytokine-induced cell death (at 20 µM (top of the series)) turn out when `C[C@@H]1CN([C@@H](C)COC(=O)NCCOCCOCCN)C(=O)c2cccc(NC(=O)Nc3cccc4ccccc34)c2O[C@H]1CN(C)S(=O)(=O)c1ccc2c(c1)OCCO2` was run?
Its inhibition of cytokine-induced cell death is 102%.
